Measurements published in patent US20250346550A1, “METHODS OF MODULATING ENDONUCLEASE G USING RESVERATROL AND ITS DERIVATIVES” (THE REGENTS OF THE UNIVERSITY OF COLORADO A BODY CORPORATE, priority 2022, published 2025).

Tests used:
[1] = system: paternal mitochondrial elimination (PME) in C. elegans wild-type (N2) cross-fertilized embryos; assay: PME fluorescent microscopy assay (MTR-stained paternal mitochondrial clusters), N2 males x N2 hermaphrodites; assay type: in vivo; conditions: for effect on PME in the screen: compound 100 μM, 64-cell stage embryos (FIG. 1a)
Protocol: FIG. 1. […] The numbers of MTR-stained paternal mitochondrial clusters in 64-cell cross-fertilized embryos from mating of MTR-stained N2 males with N2 hermaphrodites in the presence of the indicated compounds (100 μM) were scored. n≥15 embryos for each compound. b, d-g, Quantification of MTR-stained paternal mitochondrial clusters in 64-cell stage embryos (b, d-f) or in embryos at the indicated stage (g) from the cross between MTR-stained N2 males and N2 hermaphrodites, in the presence of 0.25% ethanol (Mock) or 50 μM of the indicated compound. In each experiment, n>40 embryos (b,d,e), n=20 embryos (f), and n≥10 embryos (g) were scored, respectively. […] Data are mean±s.e.m. **P<0.01, ***P<0.001; n.s., not significant, two-sided, unpaired t-test.
FIG. 7. Effects of different dosages of resveratrol isomers on PME. a, b, The effects of different dosages of cis-resveratrol (a) and trans-resveratrol (b) on PME. The numbers of MTR-stained paternal mitochondrial clusters in 64-cell embryos (a) or 16-cell embryos (b) from mating of MTR-stained N2 males with N2 hermaphrodites in the presence of the indicated concentrations of resveratrol isomers were scored. […] N2 hermaphrodites and MTR-stained uaDf5/+ males were mated as indicated in the presence of 0.25% ethanol (Mock, d), 50 μM trans-resveratrol (e), or 50 μM cis-resveratrol (f). Males also carried smIs42, an integrated Psur-5sur-5::gfp transgene, which directs GFP expression in all somatic cells in most developmental stages, and was used to track cross progeny. A single cross-fertilized embryo or larva (MTR- or GFP-positive) at the indicated stage was analyzed by PCR. uaDf5/+ and N2 hermaphrodites were controls.
FIG. 12. […] Quantification of MTR-stained paternal mitochondrial clusters at the indicated embryonic stages from the cross between MTR-stained N2 males and N2 hermaphrodites, in the presence of 0.25% ethanol (Mock) or 50 μM of the indicated compound. In each experiment, n≥10 embryos embryos. Data are mean±s.e.m. **P<0.01, ***P<0.001; n.s., not significant, two-sided, unpaired t-test.
Following fertilization, paternal mitochondria are rapidly depolarized and damaged in fertilized eggs, which could generate and release reactive oxygen species (ROS) that affect PME and embryo development. We thus screened twelve small molecules derived from natural products that have been used as antioxidants for the potential activity in modulating PME (FIG. 6a), using a fluorescent microscopy assay. In this assay, C. elegans wild-type (N2) males prestained with Mitotracker Red (MTR), a mitochondrion-specific fluorescent dye, were mated with unstained N2 hermaphrodites in the presence of the compound of interest ([…]) and the cross-fertilized embryos were examined for the presence of MTR-stained paternal mitochondria or mitochondrial clusters.

CPS-6 = target: T1, CPS-6 (Caenorhabditis elegans, UniProt Q95NM6); assay: plasmid DNA cleavage assay; assay type: biochemical, C. elegans; conditions: 20 μM
T1 construct: Recombinant CPS-6 protein was incubated with the supercoiled plasmid DNA substrate
T1 sequence (Q95NM6 1-308): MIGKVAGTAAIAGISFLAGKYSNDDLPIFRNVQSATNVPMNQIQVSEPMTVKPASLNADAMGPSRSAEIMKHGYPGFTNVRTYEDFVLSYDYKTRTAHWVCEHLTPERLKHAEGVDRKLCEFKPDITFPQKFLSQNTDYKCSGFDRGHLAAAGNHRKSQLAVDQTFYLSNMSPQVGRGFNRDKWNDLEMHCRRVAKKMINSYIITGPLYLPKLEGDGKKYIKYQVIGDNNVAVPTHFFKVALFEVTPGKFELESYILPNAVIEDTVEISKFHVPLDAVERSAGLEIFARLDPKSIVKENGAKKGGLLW
Protocol: FIG. 3. Resveratrol isomers target CPS-6 to affect PME. a, b, Both cis-resveratrol and trans-resveratrol act paternally to affect PME. The numbers of MTR-stained paternal mitochondrial clusters in embryos at 64-cell (a) or 16-cell (b) stage from the indicated crosses were scored. N2 males or hermaphrodites were pretreated with 0.25% ethanol (Mock), 50 μM cis-resveratrol (a), or 50 μM trans-resveratrol (b) as indicated before mating. c-g, Quantification of MTR-stained paternal mitochondrial clusters in 64-cell embryos from the indicated crosses treated with 0.25% ethanol (Mock), 50 μM cis-resveratrol, and 50 μM trans-resveratrol, respectively. Alleles used are lgg-1(bp523), cps-6(tm3222) and rad-23(tm2595). Data are mean s.e.m; n≥15 embryos (a) and n≥20 embryos (b, c-g) were scored in each experiment. ***P<0.001; n.s., not significant, two-sided, unpaired t-test. h, Resveratrol isomers enhance or inhibit the nuclease activity of CPS-6 in a plasmid DNA cleavage assay. 10 ng of CPS-6 were incubated with 0.25% ethanol (Mock), 20 μM cis-resveratrol, or 20 μM trans-resveratrol in dark at 4° C. for 1.5 hours, before 1 μg of the pPD49.78 plasmid DNA were added to the reactions. After further incubation at 30° C. for 1 hour, the reactions were resolved on a 1% agarose gel. Three different forms of plasmid DNA are indicated.
FIG. 11. Stabilized trans-resveratrol enhances the nuclease activity of CPS-6 in a plasmid DNA cleavage assay and is resistant to UV irradiation. 10 ng of CPS-6 were incubated with 0.25% ethanol (Mock), 20 μM locked trans-resveratrol with or without UV irradiation, 20 μM trans-resveratrol with or without UV irradiation, and 20 μM cis-resveratrol with or without UV irradiation, respectively, in dark at 4° C. for 1.5 hours, before 1 μg of the pPD49.78 plasmid DNA were added to the reactions. After further incubation at 30° C. for 1 hour, the reactions were resolved on a 1% agarose gel. Three different forms of plasmid DNA are indicated. Resveratrol isomers or derivative were subjected to UV irradiation for 3 hours.
Because resveratrol is an antioxidant and the endonuclease activity of CPS-6 is regulated by redox conditions both in vitro and in vivo, we investigated the possibility that resveratrol isomers could directly affect the nuclease activity of CPS-6 using a plasmid DNA cleavage assay. Recombinant CPS-6 protein was incubated with the supercoiled plasmid DNA substrate in the presence or absence of 20 μM trans-resveratrol or cis-resveratrol and the reactions were resolved by an agarose gel. […] Since the nuclease activity of CPS-6 is required for PME, these in vitro results are consistent with the in vivo observations that trans-resveratrol enhances and cis-resveratrol inhibits PME.

[2] = system: α-synuclein-induced dopaminergic neuronal death in baIn11 animals; assay: α-synuclein-based Parkinson's Disease model, DA neuronal death; assay type: in vivo, C. elegans; conditions: 50 μM, adult day 2 (FIG. 8c)
Text: FIG. 8. […] In each experiment, 300 animals were scored to determine the percentage of animals losing at least one dopaminergic neuron in the head. Data are mean±s.e.m. *P<0.05; ***P<0.001, two-sided, unpaired t-test.
FIG. 13. […] In each experiment, 300 animals were scored to determine the percentage of animals losing at least one of the six dopaminergic neurons in the head. Data are mean±s.e.m. ****P<0.001, two-sided, unpaired t-test.
In addition to PME and apoptosis, EndoG was previously shown to play an important role in mediating dopaminergic (DA) neuronal death induced by expression of human α-synuclein, which is widely considered to be a major proponent of Parkinson's disease. However, the mechanism by which EndoG mediates α-synuclein-induced neurodegeneration is unclear. In a C. elegans α-synuclein-based Parkinson's Disease model, co-expression of GFP and human α-synuclein in C. elegans dopaminergic neurons under the control of the promoter of the dat-1 gene, which encodes a dopamine transporter, from an integrated transgene baIn11 (Pdat-1::gfp/Pdat-1::α-synuclein) caused DA neuronal death in 30% of adult baIn11 animals (FIG. 8a). The cps-6(tm3222) mutation blocked DA neuronal death in adult baIn11 animals (FIG. 8a), confirming that CPS-6 is important for α-synuclein-induced DA neuronal death.

[3] = system: PME defect of cps-6(tm3222) embryos; assay: PME microscopy assay in cps-6(tm3222) crosses; assay type: in vivo, C. elegans; conditions: 64-cell embryos, scored as in FIG. 1a (FIG. 6b); DMSO control average of 17 clusters
Text: (§1) The numbers of MTR-stained paternal mitochondrial clusters were scored as in FIG. 1a. cps-6(tm3222) and lgg-1(bp523) alleles were used in the assays. Data are mean±s.e.m. n=20 embryos (b) and 15 embryos (c) in each experiment. **P<0.01; ***P<0.001; n.s., not significant, two-sided, unpaired t-test.
(§2) To investigate how these six compounds might affect PME, the present inventors performed chemical genetic analysis to analyze the PME pathways that might be affected by the compounds. The present inventors first examined whether they might affect the paternal PME pathway mediated by the mitochondrial endonuclease CPS-6, whose activity is inhibited by oxidation and protected by reducing agents.

[4] = system: PME defect of lgg-1(bp523) embryos (autophagy pathway); assay: PME microscopy assay in lgg-1(bp523) crosses; assay type: in vivo, C. elegans; conditions: FIG. 6c
Text: as §1, §2

EndoG = conditions: stated in discussion, no test described; cited from earlier work

SMILES | effect on PME defect of cps-6(tm3222) embryos, screen compounds [3] | effect on PME in the screen [1] | other results
Oc1ccc(/N=C/c2cc(O)cc(O)c2)cc1 |  |  | dynamics of PME at different embryonic stages ([1]; 50 μM vs 0.25% ethanol mock (FIG. 1g, FIG. 12)): identical activity in promoting PME; effect on CPS-6 nuclease activity (CPS-6; 10 ng CPS-6, pPD49.78 plasmid DNA): similarly enhance the endonuclease activity of CPS-6 like trans-resveratrol; effect on CPS-6 nuclease activity after UV irradiation of the compound (CPS-6; compound UV irradiated for 3 hours (FIG. 11)): did not alter the activity; adult baIn11 animals with neurodegeneration (DA neuronal loss) [2]: 45%
O=c1cc(-c2ccc(O)cc2)oc2cc(O)cc(O)c12 [apigenin] | significantly increased the number of paternal mitochondrial clusters |  | enhancement of the PME defect in lgg-1 deficient embryos, screen compounds [4]: enhanced the PME defect
O=C1O[C@H]([C@@H](O)CO)C(O)=C1O [ascorbic acid, reference compound] |  | did not inhibit PME | 
CC1=C(/C=C/C(C)=C/C=C/C(C)=C/C=C/C=C(C)/C=C/C=C(C)/C=C/C2=C(C)C(=O)[C@@H](O)CC2(C)C)C(C)(C)C[C@H](O)C1=O [astaxanthin, reference compound] |  | did not inhibit PME | 
O=c1cc(-c2ccccc2)oc2cc(O)c(O)c(O)c12 [baicalein] | significantly increased the number of paternal mitochondrial clusters |  | enhancement of the PME defect in lgg-1 deficient embryos, screen compounds [4]: not
Oc1cc(O)c2c(c1)O[C@H](c1ccc(O)c(O)c1)[C@@H](O)C2 [catechinic acid, reference compound] |  | did not inhibit PME | 
COc1cc(/C=C/C(=O)CC(=O)/C=C/c2ccc(O)c(OC)c2)ccc1O [curcumin] | significantly increased the number of paternal mitochondrial clusters |  | 
Nc1nc2ncc(CNc3ccc(C(=O)N[C@@H](CCC(=O)O)C(=O)O)cc3)nc2c(=O)[nH]1 [folic acid, reference compound] |  | did not inhibit PME | 
CC(CC(=O)C[C@@H](C)[C@H]1CC(=O)[C@@]2(C)C3=C(C(=O)C[C@]12C)[C@@]1(C)CC[C@H](O)C(C)(C)[C@@H]1C[C@@H]3O)C(=O)O (stereo partly shown) [ganoderic acid B] | significantly increased the number of paternal mitochondrial clusters |  | enhancement of the PME defect in lgg-1 deficient embryos, screen compounds [4]: enhanced the PME defect
N[C@@H](CCC(=O)N[C@@H](CS)C(=O)NCC(=O)O)C(=O)O [glutathione, reference compound] |  | did not inhibit PME | 
C[n+]1ccc(-c2cc[n+](C)cc2)cc1 [paraquat, reference compound] |  | inhibited PME | 
O=c1c(O)c(-c2ccc(O)c(O)c2)oc2cc(O)cc(O)c12 [quercetin] | significantly increased the number of paternal mitochondrial clusters |  | 
Oc1ccc(/C=C/c2cc(O)cc(O)c2)cc1 [resveratrol, 3,5,4′-trihydroxy-trans-stilbene] | did not affect the PME defect |  | enhancement of the PME defect in lgg-1 deficient embryos, screen compounds [4]: enhanced the PME defect; affinity of resveratrol to EndoG (EndoG): nanomolar affinity
O=C(OC[C@H]1O[C@@H](OC(=O)c2cc(O)c(O)c(OC(=O)c3cc(O)c(O)c(O)c3)c2)[C@H](OC(=O)c2cc(O)c(O)c(OC(=O)c3cc(O)c(O)c(O)c3)c2)[C@@H](OC(=O)c2cc(O)c(O)c(OC(=O)c3cc(O)c(O)c(O)c3)c2)[C@@H]1OC(=O)c1cc(O)c(O)c(OC(=O)c2cc(O)c(O)c(O)c2)c1)c1cc(O)c(O)c(OC(=O)c2cc(O)c(O)c(O)c2)c1 [tannic acid, reference compound] |  | did not inhibit PME | 
